This data set is described as follows: MTT test, normal cells, 24 h. It is filed as cell-based. The conditions noted are these: human, human dermal adult fibroblasts (HDFa).

For the molecule `O=[N+]([O-])c1ccc(NCCCCN=C=S)c2nonc12` [NBDC4NCS, N-(4-isothiocyanatobutyl)-7-nitro-2,1,3-benzoxadiazol-4-amine], the viability (in general, a per cent measure of how many cells are alive, often set against a control) at 24 h is around 70%.

The values above are taken from article PMC12644596 (Scientific Reports, 2025).
